Test system: 1AS cells
Experiment: Growth of subcutaneous 1AS carcinomas in BDX rats
Format: in vivo, rat
Details: 1AS cells s.c., 4-5 mg/kg each day in DMSO, FIG. 7
Method: 1AS cells (5×10^5) were injected subcutaneously into 2 groups of BDX rats (8 rats per group). One group was subsequently injected with 100 μl of DMSO/animal per day up to the end of the experiment. The other group was injected with 100 μl of MAZ51 (10 mg/ml in DMSO)/animal, equivalent to 4-5 mg/kg, each day. The tumor volume was measured normally measured regularly after the injection of the tumor cells.
FIG. 7: Depiction of the tumor volume as a function of the number of days after tumor cell injection depending on the treatment of the 1AS tumor cells with MAZ51.

CN(C)c1ccc(C=C2C(=O)Nc3ccccc32)c2ccccc12 [MAZ51, 3-(4-Dimethylaminonaphthalen-1-ylmethylene)-1,3-dihydroindol-2-one]
inhibition of tumor growth (tumor volume): considerably inhibited
